Assay: T1 relaxation in human full blood
Type: physicochemical
Details: human full blood at 37° C.

Compound: CC(=O)C(=O)O [[1-^13C]pyruvate, ^13C1-pyruvate]
- T1 relaxation: about 42 s

From patent US20120128593A1, “USE OF A MAGNETIC RESONANCE IMAGING MEDIUM COMPRISING HYPERPOLARIZED 13C PYRUVATE FOR THE DETECTION OF INFLAMMATION OR INFECTION” (priority 2010, published 2012)
